Test results taken from ChEMBL document CHEMBL3272053, “(exo, exo)-2-Aryltropane-3-carboxylic esters, hypoglycemic agents with accompanying analgesic activity” (J Med Chem, 1978).
Activity calls are given as the source filed them. The rule behind the calls is not given here.

Columns and labels:
Rattus norvegicus [1] = test: Hypoglycemic activity in Sprague-Dawley rat assessed as reduction of blood glucose level at 100 mg/kg, po by glucagon-impaired glucose disposal test relative to control; assay type: functional; design: scale not given: the % may be the effect or the level left
Mus musculus [2] = test: Analgesic activity in sc dosed Swiss-Webster mouse assessed as reduction of acetylcholine-induced writhing; assay type: functional; conditions: Mus musculus, Swiss-Webster, sc; read-out: ED50
Rattus norvegicus [3] = test: Toxicity in Sprague-Dawley rat assessed as tremor at 480 mg/kg, po; assay type: organism-based; design: dose 480 mg/kg, route oral; conditions: in vivo
Rattus norvegicus [4] = test: Narcotic analgesic activity in fasted Sprague-Dawley rat at 480 mg/kg, po measured at 60 mins by D'Amour-Smith tail-flick test relative to control; assay type: functional
Rattus norvegicus [5] = test: Toxicity in Sprague-Dawley rat assessed as convulsion at 480 mg/kg, po; assay type: organism-based; design: dose 480 mg/kg, route oral; conditions: in vivo
Rattus norvegicus [6] = test: Narcotic analgesic activity in fasted Sprague-Dawley rat at 240 mg/kg, po measured at 60 mins by D'Amour-Smith tail-flick test relative to control; assay type: functional
Rattus norvegicus [7] = test: Analgesic activity in po dosed rat assessed as reduction of intraarterial bradykinin-induced pain response; assay type: functional
Mus musculus [8] = test: Toxicity in Swiss-Webster mouse assessed as stimulation of straub tail at 2.5 mg/kg, sc after 15 to 25 mins; assay type: organism-based; design: dose 2.5 mg/kg, route subcutaneous; conditions: in vivo
Rattus norvegicus [9] = test: Hypoglycemic activity in glucose loaded Sprague-Dawley rat assessed as reduction of blood glucose level at 88 mg/kg, po relative to control; assay type: functional; design: scale not given: the % may be the effect or the level left
Rattus norvegicus [10] = test: Narcotic analgesic activity in fasted Sprague-Dawley rat at 120 mg/kg, po measured at 15 mins by D'Amour-Smith tail-flick test relative to control; assay type: functional
Rattus norvegicus [11] = test: Toxicity in Sprague-Dawley rat assessed as tremor at 120 mg/kg, po; assay type: organism-based; design: dose 120 mg/kg, route oral; conditions: in vivo
Rattus norvegicus [12] = test: Toxicity in Sprague-Dawley rat assessed as hyperexcitability at 120 mg/kg, po; assay type: organism-based; design: dose 120 mg/kg, route oral; conditions: in vivo
Rattus norvegicus [13] = test: Hypoglycemic activity in Sprague-Dawley rat assessed as reduction of blood glucose level at 87 mg/kg, po by glucagon-impaired glucose disposal test relative to control; assay type: functional; design: scale not given: the % may be the effect or the level left
Rattus norvegicus [14] = test: Hypoglycemic activity in Sprague-Dawley rat assessed as reduction of blood glucose level at 87 mg/kg, po by glucagon-impaired glucose disposal test in presence of microsomal enzyme inhibitor SKF 525-A; assay type: functional, organism-based; design: dose 87 mg/kg
Rattus norvegicus [15] = test: Toxicity in Sprague-Dawley rat assessed as jumpy behavior at 480 mg/kg, po; assay type: organism-based; design: dose 480 mg/kg, route oral; conditions: in vivo
Rattus norvegicus [16] = test: Toxicity in Sprague-Dawley rat assessed as stiff tail at 480 mg/kg, po; assay type: organism-based; design: dose 480 mg/kg, route oral; conditions: in vivo
Rattus norvegicus [17] = test: Toxicity in rat assessed as slight rigidity at 480 mg/kg, po; assay type: organism-based; design: dose 480 mg/kg, route oral; conditions: in vivo
Mus musculus [18] = test: Analgesic activity in Swiss-Webster mouse assessed as reduction of acetylcholine-induced writhing at 75 mg/kg, sc relative to control; assay type: functional; design: scale not given: the % may be the effect or the level left; conditions: route subcutaneous
Rattus norvegicus [19] = test: Narcotic analgesic activity in fasted Sprague-Dawley rat at 240 mg/kg, po measured at 15 mins by D'Amour-Smith tail-flick test relative to control; assay type: functional
Rattus norvegicus [20] = test: Hypoglycemic activity in glucose loaded Sprague-Dawley rat assessed as reduction of blood glucose level at 64 mg/kg, po relative to control; assay type: functional; design: scale not given: the % may be the effect or the level left
Rattus norvegicus [21] = test: Toxicity in Sprague-Dawley rat assessed as very rigid structure at 240 mg/kg, po; assay type: organism-based; design: dose 240 mg/kg, route oral; conditions: in vivo
Rattus norvegicus [22] = test: Hypoglycemic activity in glucose loaded Sprague-Dawley rat assessed as reduction of blood glucose level at 64 mg/kg, po in presence of microsomal enzyme inhibitor SKF 525-A; assay type: functional, organism-based; design: dose 64 mg/kg
Mus musculus [23] = test: Analgesic activity in po dosed Swiss-Webster mouse assessed as reduction of acetylcholine-induced writhing; assay type: functional
Rattus norvegicus [24] = test: Hypoglycemic activity in fasted Sprague-Dawley rat assessed as reduction of blood glucose level at 78 mg/kg, po relative to control; assay type: functional; design: scale not given: the % may be the effect or the level left
Rattus norvegicus [25] = test: Hypoglycemic activity in fasted Sprague-Dawley rat assessed as reduction of blood glucose level at 78 mg/kg, iv relative to control; assay type: functional, organism-based; design: dose 78 mg/kg
Rattus norvegicus [26] = test: Hypoglycemic activity in glucose loaded Sprague-Dawley rat assessed as reduction of blood glucose level at 84 mg/kg, po relative to control; assay type: functional; design: scale not given: the % may be the effect or the level left

With `COC(=O)[C@H]1C[C@H]2CC[C@H]([C@H]1c1ccc[nH]1)N2C` the Activity (Rattus norvegicus [1]) was 30%, the ED50 (Mus musculus [2]) was 18 mg/kg and the Activity (Rattus norvegicus [3]) was “Toxic”. For the same compound, the Activity (Rattus norvegicus [4]) was 86%, the Activity (Rattus norvegicus [5]) was “Toxic” and the Activity (Rattus norvegicus [6]) was 19%. The ED50 (Rattus norvegicus [7]) was 8.5 mg/kg.
With `CCOC(=O)[C@H]1C[C@H]2CC[C@@H](N2)[C@H]1c1cccs1.Cl` the ED50 (Mus musculus [2]) was 2.8 mg/kg, the Activity (Mus musculus [8]) was “Toxic” and the Activity (Rattus norvegicus [9]) was 66%. It also gave an Activity (Rattus norvegicus [10]) of 85%.
`COC(=O)[C@H]1C[C@H]2CC[C@@H](N2)[C@H]1c1ccccc1.Cl` was tested, and the ED50 (Mus musculus [2]) was 4 mg/kg, the Activity (Rattus norvegicus [11]) was “Toxic” and the Activity (Rattus norvegicus [12]) was “Toxic”. For the same compound, the Activity (Rattus norvegicus [13]) was 31%, the Activity (Rattus norvegicus [14]) was “Active” and the Activity (Rattus norvegicus [10]) was 69%.
For `CCCCCCCN1[C@@H]2CC[C@@H]1[C@@H](c1cccs1)[C@@H](C(=O)OC)C2`, the Activity (Rattus norvegicus [1]) was 40%, the Activity (Rattus norvegicus [6]) was 70% and the Activity (Rattus norvegicus [15]) was “Toxic”. The Activity (Rattus norvegicus [16]) was “Toxic”, the Activity (Rattus norvegicus [17]) was “Toxic” and the Activity (Mus musculus [18]) was 27%.
For `COC(=O)[C@H]1C[C@H]2CC[C@H]([C@H]1c1cccs1)N2CCC#N.Cc1ccc(S(=O)(=O)O)cc1`, the Activity (Rattus norvegicus [19]) was 100%, the Activity (Rattus norvegicus [20]) was 64% and the Activity (Rattus norvegicus [21]) was “Toxic”. The Activity (Rattus norvegicus [22]) was “Active” and the ED50 (Mus musculus [23]) was 60 mg/kg.
For `Cl.O=C(O)[C@H]1C[C@H]2CC[C@@H](N2)[C@H]1c1cccs1`, the Activity (Rattus norvegicus [24]) was <20% and the Activity (Rattus norvegicus [25]) was “inactive”.
For `COC(=O)[C@H]1C[C@H]2CC[C@H]([C@H]1C)N2C.Cl`, the Activity (Rattus norvegicus [26]) was <20%.
